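Assay format: 96-well plates, 48-hour exposure. GI50 marks 50% less growth.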 Calls of active or inactive are those of the source. No stated cut-off is given here; in the data, active = GI50 up to about 1.1 µM and inactive = higher.
Legend:
Test in all cases: NCI-60 cell line screen, 48 h
HCC 2998 = test system: HCC 2998
HL-60 = test system: HL-60
HOP-92 = test system: HOP-92
HT-29 = test system: HT-29
Hs-578T = test system: Hs-578T
MCF7 = test system: MCF7
MDA-MB-435 = test system: MDA-MB-435
NCI-H522 = test system: NCI-H522
NCI/ADR-RES = test system: NCI/ADR-RES
OVCAR-5 = test system: OVCAR-5
RXF 393 = test system: RXF 393
SF-268 = test system: SF-268
SF-295 = test system: SF-295
SK-MEL-2 = test system: SK-MEL-2
SK-MEL-5 = test system: SK-MEL-5
SNB-19 = test system: SNB-19
SNB-75 = test system: SNB-75
SR = test system: SR
T47D = test system: T47D
UO-31 = test system: UO-31

SMILES | GI50 (HCC 2998) | GI50 (HL-60) | GI50 (HOP-92) | GI50 (HT-29) | GI50 (Hs-578T) | GI50 (MCF7) | GI50 (MDA-MB-435) | GI50 (NCI-H522) | GI50 (NCI/ADR-RES) | GI50 (OVCAR-5) | GI50 (RXF 393) | GI50 (SF-268) | GI50 (SF-295) | GI50 (SK-MEL-2) | GI50 (SK-MEL-5) | GI50 (SNB-19) | GI50 (SNB-75) | GI50 (SR) | GI50 (T47D) | GI50 (UO-31)
CC(=O)OCC1OC(NC(=S)Nn2c(-c3ccccc3)nc3ccccc3c2=O)C(OC(C)=O)C(OC(C)=O)C1OC(C)=O (stereo not given) | 97.9 µM (inactive) | 70.8 µM (inactive) | 38.4 µM (inactive) | > 100 µM (inactive) | 78.7 µM (inactive) | 85.9 µM (inactive) | > 100 µM (inactive) | 45.5 µM (inactive) | > 100 µM (inactive) | > 100 µM (inactive) | > 100 µM (inactive) | > 100 µM (inactive) | > 100 µM (inactive) | 25.9 µM (inactive) | 35.8 µM (inactive) | > 100 µM (inactive) | 96.8 µM (inactive) | 35.6 µM (inactive) | 19.4 µM (inactive) | > 100 µM (inactive)
COC1=CC(=O)c2c(O)c3c(c(O)c2C1=O)C[C@](C)(O)C[C@@H]3O | 3.67 µM (inactive) | 1.62 µM (inactive) | 9.48 µM (inactive) | 2.72 µM (inactive) | 18.2 µM (inactive) | 4.89 µM (inactive) | 1.88 µM (inactive) | 4.52 µM (inactive) | 3.78 µM (inactive) | 12.7 µM (inactive) | 5.3 µM (inactive) | 5.25 µM (inactive) | 3.51 µM (inactive) | 3.35 µM (inactive) | 1.33 µM (inactive) | 4.92 µM (inactive) | 9.42 µM (inactive) | 2.92 µM (inactive) | 6.98 µM (inactive) | 11.4 µM (inactive)
Cc1cnc2[nH]c(-c3ccccc3)cc(=O)c2c1 | 0.0372 µM (active) | < 0.01 µM (active) | 0.065 µM (active) | 0.0101 µM (active) | 0.0171 µM (active) | 0.164 µM (active) | < 0.01 µM (active) | < 0.0118 µM (active) | 0.012 µM (active) | 3.07 µM (inactive) | 0.0154 µM (active) | 0.0697 µM (active) | 0.0545 µM (active) | 0.0391 µM (active) | < 0.01 µM (active) | 0.0904 µM (active) | 0.0122 µM (active) | < 0.01 µM (active) | > 100 µM (inactive) | 0.0528 µM (active)
CC(C)c1cc2c(cc1S(=O)(=O)O)[C@@]1(C)CCC[C@@](C)(C(=O)O)C1CC2 (stereo not given in full) | > 100 µM (inactive) | > 100 µM (inactive) | > 100 µM (inactive) | > 100 µM (inactive) | > 100 µM (inactive) | > 100 µM (inactive) | > 100 µM (inactive) | > 100 µM (inactive) | > 100 µM (inactive) | > 100 µM (inactive) | > 100 µM (inactive) | > 100 µM (inactive) | > 100 µM (inactive) | > 100 µM (inactive) | > 100 µM (inactive) | > 100 µM (inactive) | > 100 µM (inactive) | > 100 µM (inactive) | > 100 µM (inactive) | > 100 µM (inactive)
COc1ccc2c(C)cc(N/N=C/c3ccc(C)s3)nc2c1 | 6.11 µM (inactive) | 7.05 µM (inactive) | 19.5 µM (inactive) | 3.21 µM (inactive) | 31.6 µM (inactive) | 6.24 µM (inactive) | 16.3 µM (inactive) | 3.45 µM (inactive) | 9.82 µM (inactive) | 12.6 µM (inactive) | 14.3 µM (inactive) | 25.8 µM (inactive) | 9.62 µM (inactive) | 19.1 µM (inactive) | 3.43 µM (inactive) | 25.4 µM (inactive) | 20.9 µM (inactive) | 5.18 µM (inactive) | 6.53 µM (inactive) | 13.6 µM (inactive)
CC(N)/C(N)=N/O (stereo not given) | > 100 µM (inactive) | > 100 µM (inactive) | > 100 µM (inactive) | > 100 µM (inactive) | > 100 µM (inactive) | > 100 µM (inactive) | > 100 µM (inactive) | > 100 µM (inactive) | > 100 µM (inactive) | > 100 µM (inactive) | > 100 µM (inactive) | > 100 µM (inactive) | > 100 µM (inactive) | > 100 µM (inactive) | > 100 µM (inactive) | > 100 µM (inactive) | > 100 µM (inactive) | > 100 µM (inactive) | > 100 µM (inactive) | > 100 µM (inactive)
CCOC(=O)NC(C(=O)OCC)(N1CCN(c2cc3c(cc2F)c(=O)c(C(=O)O)cn3CC)CC1)C(F)(F)F (stereo not given) | > 100 µM (inactive) | > 100 µM (inactive) | > 100 µM (inactive) | > 100 µM (inactive) | > 100 µM (inactive) | > 100 µM (inactive) | 26.1 µM (inactive) | > 100 µM (inactive) | > 100 µM (inactive) | > 100 µM (inactive) | > 100 µM (inactive) | > 100 µM (inactive) | > 100 µM (inactive) | > 100 µM (inactive) | > 100 µM (inactive) | > 100 µM (inactive) | > 100 µM (inactive) | > 100 µM (inactive) | > 100 µM (inactive) | > 100 µM (inactive)
C#CC(O)/C=C/C(O)CCCC(O)CC#CC(O)C#CCCCCC(O)/C=C/CCCC(O)/C=C/CCCCCCCCCCCCCC(O)C(O)C#CC(=O)O (stereo not given) | > 25 µM (inactive) | > 25 µM (inactive) | > 25 µM (inactive) | > 25 µM (inactive) | > 25 µM (inactive) | > 25 µM (inactive) | > 25 µM (inactive) | 12.8 µM (inactive) | > 25 µM (inactive) | > 25 µM (inactive) | > 25 µM (inactive) | > 25 µM (inactive) | > 25 µM (inactive) | > 25 µM (inactive) | > 25 µM (inactive) | > 25 µM (inactive) | 20 µM (inactive) | > 25 µM (inactive) | > 25 µM (inactive) | > 25 µM (inactive)
COc1cc(-c2cc(=O)c3cc4c(cc3[nH]2)OCO4)cc(OC)c1O | > 10 µM (inactive) | > 10 µM (inactive) | > 10 µM (inactive) | > 10 µM (inactive) | > 10 µM (inactive) | > 10 µM (inactive) | > 10 µM (inactive) | > 10 µM (inactive) | > 10 µM (inactive) | > 10 µM (inactive) | > 10 µM (inactive) | > 10 µM (inactive) | > 10 µM (inactive) | > 10 µM (inactive) | > 10 µM (inactive) | > 10 µM (inactive) | > 10 µM (inactive) | > 10 µM (inactive) | > 10 µM (inactive) | > 10 µM (inactive)
NCCCN1c2ccccc2Sc2ccc(Cl)cc21 | 2.12 µM (inactive) | 9.98 µM (inactive) | > 10 µM (inactive) | 2.55 µM (inactive) | 5.01 µM (inactive) | 1.76 µM (inactive) | 1.93 µM (inactive) | 3.2 µM (inactive) | > 5.4 µM (inactive) | > 5.28 µM (inactive) | > 7.28 µM (inactive) | 8.17 µM (inactive) | > 5.83 µM (inactive) | > 6.21 µM (inactive) | > 4.02 µM (inactive) | > 8.45 µM (inactive) | > 6.98 µM (inactive) | 2.18 µM (inactive) | > 5.36 µM (inactive) | 7.8 µM (inactive)
COc1ccc(/N=C\c2ccc(N(CCC#N)CCC#N)cc2)cc1 | 38.8 µM (inactive) | 22.3 µM (inactive) | 99.3 µM (inactive) | > 67.6 µM (inactive) | > 100 µM (inactive) | > 100 µM (inactive) | 32.8 µM (inactive) | > 95.1 µM (inactive) | > 100 µM (inactive) | 55.5 µM (inactive) | > 78.5 µM (inactive) | 53.2 µM (inactive) | 54.1 µM (inactive) | > 67.1 µM (inactive) | 40.4 µM (inactive) | 90.2 µM (inactive) | > 100 µM (inactive) | 90.8 µM (inactive) | > 100 µM (inactive) | 44.5 µM (inactive)
CC(C)(C)N1C=[N+](C(C)(C)C)CC1 | > 100 µM (inactive) | > 100 µM (inactive) | > 100 µM (inactive) | > 100 µM (inactive) | > 100 µM (inactive) | > 100 µM (inactive) | > 100 µM (inactive) | > 100 µM (inactive) | > 100 µM (inactive) | > 100 µM (inactive) | > 100 µM (inactive) | > 100 µM (inactive) | > 100 µM (inactive) | > 100 µM (inactive) | > 100 µM (inactive) | > 100 µM (inactive) | 75 µM (inactive) | > 100 µM (inactive) | > 100 µM (inactive) | > 100 µM (inactive)

Reference: ChEMBL document CHEMBL1201862, “PubChem BioAssay data set” (2004)
